The values below come from patent publication US10561642B2, “Treatment of Zika virus infections using alpha-glucosidase inhibitors” (FLORIDA STATE UNIVERSITY RESEARCH FOUNDATION, INC., priority 2016, dated 2020).

For assay [1], the system named is Japanese encephalitis virus. The settings on record: upon treatment; cited from earlier work.
The test system of assay [2] is Japanese encephalitis virus. As to conditions: compared with Dengue virus; cited from earlier work.
The subject of a further assay is FSS-13025 strain of ZIKV. Nature of the assay: Anti-ZIKV activity in SNB-19 cells, ZIKV NS1 expression by Western blot. The class given is cell-based, Zika virus. As to conditions: 100 μm, 500 μm and 1 mM, treated one hour prior to inoculation (MOI=1), harvested 24 hours post-infection. As to the method:
FIG. 1. Castanospermine as anti-ZIKV compound. Castanospermine was screened for antiviral activity against ZIKV infection. Glioblastoma SNB-19 cells were treated with castanospermine at the indicated concentrations one hour prior to inoculation with the FSS-13025 strain of ZIKV (at MOI=1). Cells were harvested 24 hours post-infection and analyzed by Western blot for ZIKV-NS1 or GAPDH.
Cells of the glioblastoma SNB-19 cell line were maintained at 37° C. in 5% CO2 in […], 1× penicillin/streptomycin, and 10% fetal bovine serum (Invitrogen). SNB-19 cells were treated with castanospermine at increasing concentrations (100 μm, 500 μm, and 1 mM) one hour prior to inoculation with the FSS-13025 strain of ZIKV. Cells were harvested 24 hours post-infection and analyzed by Western blot for ZIKV-NS1 or GAPDH.
(A western blot detects proteins with antibodies after separation by electrophoresis.)

Turning to `CCCCCCCCCN1C[C@H](O)[C@@H](O)[C@H](O)[C@H]1CO` [NN-DNJ, N-nonyl-deoxynojirimycin], in assay [1], the “Mortality rate among mice given a lethal dose of Japanese encephalitis virus” value was “decreased mortality rate”. Also, the “Effect on cell infection by Japanese encephalitis virus” value in assay [2] was “suppressed cell infection but to a lesser extent than with Dengue virus”.

In the case of `O[C@H]1[C@H](O)[C@@H](O)CN2CC[C@H](O)[C@H]12` [castanospermine, (1S,6S,7R,8aR)-Tetrahydroxyoctahydroindolizine], in the assay on FSS-13025 strain of ZIKV, the “Inhibition of ZIKV infection (ZIKV protein NS1 expression)” value is on record as “significantly inhibit ZIKV infection”.
